Test results: PubChem BioAssay AID248 (DTP/NCI, 2004)
Values joined by “and” are separate entries in the source; they are usually repeats but may differ in a detail not shown here. Identical values can stand only once. Toxic doses and inconclusive results are not listed. No stated cut-off is given here; in the data, active means T/C of 150% or more; inactive means T/C below 125%.

System: L1210 leukemia ip in BDF1 mice, survival T/C
Assay: NCI In Vivo Anticancer Drug Screen. Data for tumor model L1210 Leukemia (intraperitoneal) in B6D2F1 (BDF1) mice
Settings: endpoint: mean survival time, higher = longer survival
Method in brief: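 Transplanted-tumor mice were given test agent; controls received vehicle only. Survival readings from the two groups were divided (treated over control).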

[1] = dose: 100.0 mg/kg/injection, schedule: Q04DX002 (ip), vehicle: saline
[2] = dose: 200.0 mg/kg/injection, schedule: Q04DX002 (ip), vehicle: saline
[3] = dose: 100.0 mg/kg/injection, schedule: Q01DX009 (ip), vehicle: saline with Tween-80
[4] = dose: 200.0 mg/kg/injection, schedule: Q01DX009 (ip), vehicle: saline with Tween-80
[5] = dose: 400.0 mg/kg/injection, schedule: Q01DX009 (ip), vehicle: saline with Tween-80
[6] = dose: 100.0 mg/kg/injection, schedule: Q04DX002 (ip), vehicle: Klucel (hydroxypropylcellulose) (HPC)
[7] = dose: 200.0 mg/kg/injection, schedule: Q04DX002 (ip), vehicle: Klucel (hydroxypropylcellulose) (HPC)
[8] = dose: 400.0 mg/kg/injection, schedule: Q04DX002 (ip), vehicle: Klucel (hydroxypropylcellulose) (HPC)
[9] = dose: 100.0 mg/kg/injection, schedule: Q04DX003 (ip), vehicle: Klucel (hydroxypropylcellulose) (HPC)
[10] = dose: 200.0 mg/kg/injection, schedule: Q04DX003 (ip), vehicle: Klucel (hydroxypropylcellulose) (HPC)
[11] = dose: 400.0 mg/kg/injection, schedule: Q04DX003 (ip), vehicle: Klucel (hydroxypropylcellulose) (HPC)
[12] = dose: 100.0 mg/kg/injection, schedule: Q01DX009 (ip), vehicle: Klucel (hydroxypropylcellulose) (HPC)
[13] = dose: 200.0 mg/kg/injection, schedule: Q01DX009 (ip), vehicle: Klucel (hydroxypropylcellulose) (HPC)
[14] = dose: 400.0 mg/kg/injection, schedule: Q01DX009 (ip), vehicle: Klucel (hydroxypropylcellulose) (HPC)

Measured: T/C

Cc1cn(C2CC(O)C(COP(=O)(N3CC3)N3CC3)O2)c(=O)[nH]c1=O (configuration not stated)
inactive: dose: 50.0 mg/kg/injection, schedule: Q04DX002 (ip), vehicle: saline 107 % of control | [1] 100 % of control | [2] 94 % of control

C=CC[n+]1cccc(S(=O)(=O)[O-])c1
inactive: dose: 100.0 mg/kg/injection, schedule: Q04DX003 (ip), vehicle: saline 101 % of control | dose: 200.0 mg/kg/injection, schedule: Q04DX003 (ip), vehicle: saline 98 % of control | dose: 400.0 mg/kg/injection, schedule: Q04DX003 (ip), vehicle: saline 103 % of control

CCC(=O)CC(=O)C(=O)OC
inactive: dose: 75.0 mg/kg/injection, schedule: Q01DX001 (ip), vehicle: saline 102 % of control | dose: 75.0 mg/kg/injection, schedule: Q04DX003 (ip), vehicle: saline 105 % of control | dose: 150.0 mg/kg/injection, schedule: Q01DX001 (ip), vehicle: saline 100 % of control | dose: 150.0 mg/kg/injection, schedule: Q04DX003 (ip), vehicle: saline 103 % of control | dose: 300.0 mg/kg/injection, schedule: Q01DX001 (ip), vehicle: saline 104 % of control | dose: 300.0 mg/kg/injection, schedule: Q04DX003 (ip), vehicle: saline 90 % of control

O[C@@H]1CCCC[C@@H]1n1cnc2c(=S)nc[nH]c21
inactive: [3] 97 % of control | dose: 100.0 mg/kg/injection, schedule: Q04DX003 (ip), vehicle: saline with Tween-80 98 % of control | [4] 93 % of control | dose: 200.0 mg/kg/injection, schedule: Q04DX003 (ip), vehicle: saline with Tween-80 93 % of control | [5] 92 % of control | dose: 400.0 mg/kg/injection, schedule: Q04DX003 (ip), vehicle: saline with Tween-80 91 % of control

C[N+](C)=C(Cl)Cl
inactive: dose: 100.0 mg/kg/injection, schedule: Q01DX001 (ip), vehicle: saline 97 % of control | dose: 200.0 mg/kg/injection, schedule: Q01DX001 (ip), vehicle: saline 97 % of control | dose: 400.0 mg/kg/injection, schedule: Q01DX001 (ip), vehicle: saline 95 % of control

CC1(C)C=CN(c2ccccc2)C(=O)O1
inactive: [6] 94 % of control | [7] 98 % of control | [8] 98 % of control

CCCCCCCCCCCCCC(=O)O
inactive: [9] 92 % of control | [10] 94 % of control | [11] 95 % of control

CCc1ccc(NS(=O)(=O)c2c(C)cc(C)cc2C)cc1
inactive: [12] 101 % of control | [13] 105 % of control | [14] 97 % of control

CC1(C)C(=O)C(=O)C2CCCCC21 (configuration not stated)
inactive: [3] 97 % of control | [4] 110 % of control | [5] 92 % of control

[N-]=[N+]=NCc1cnccn1
inactive: dose: 12.5 mg/kg/injection, schedule: Q01DX009 (ip), vehicle: saline 103 % of control | dose: 12.5 mg/kg/injection, schedule: Q04DX003 (ip), vehicle: saline 98 % of control | dose: 25.0 mg/kg/injection, schedule: Q01DX009 (ip), vehicle: saline 101 % of control | dose: 25.0 mg/kg/injection, schedule: Q04DX003 (ip), vehicle: saline 98 % of control | dose: 50.0 mg/kg/injection, schedule: Q04DX003 (ip), vehicle: saline 98 % of control

O=S(=O)(c1cc(Cl)ccc1Cl)N1CCc2ccccc2C1
inactive: dose: 100.0 mg/kg/injection, schedule: Q04DX002 (ip), vehicle: gum acacia 104 % of control | dose: 200.0 mg/kg/injection, schedule: Q04DX002 (ip), vehicle: gum acacia 93 % of control | dose: 400.0 mg/kg/injection, schedule: Q04DX002 (ip), vehicle: gum acacia 93 % of control

N#C/C(=C\c1ccccc1Cl)c1cccc(Cl)c1
inactive: dose: 25.0 mg/kg/injection, schedule: Q01DX009 (ip), vehicle: other 107 % of control | dose: 50.0 mg/kg/injection, schedule: Q01DX009 (ip), vehicle: other 96 % of control | dose: 100.0 mg/kg/injection, schedule: Q01DX009 (ip), vehicle: other 93 % of control and 90 % of control

CC(S(C)(=O)=O)(S(C)(=O)=O)S(C)(=O)=O
inactive: dose: 75.0 mg/kg/injection, schedule: Q01DX001 (ip), vehicle: saline with Tween-80 96 % of control | dose: 150.0 mg/kg/injection, schedule: Q01DX001 (ip), vehicle: saline with Tween-80 96 % of control | dose: 300.0 mg/kg/injection, schedule: Q01DX001 (ip), vehicle: saline with Tween-80 107 % of control

O=C1CN=C(c2ccccc2)c2cc(Cl)ccc2N1
inactive: dose: 25.0 mg/kg/injection, schedule: Q01DX009 (ip), vehicle: Klucel (hydroxypropylcellulose) (HPC) 92 % of control | dose: 50.0 mg/kg/injection, schedule: Q01DX009 (ip), vehicle: Klucel (hydroxypropylcellulose) (HPC) 94 % of control | [12] 89 % of control | [6] 106 % of control | [13] 98 % of control | [7] 93 % of control | [8] 89 % of control

COc1cccc(C2=CCCCC2)c1
inactive: dose: 50.0 mg/kg/injection, schedule: Q01DX001 (ip), vehicle: carboxymethylcellulose (CMC) 96 % of control | dose: 100.0 mg/kg/injection, schedule: Q01DX001 (ip), vehicle: carboxymethylcellulose (CMC) 93 % of control | dose: 200.0 mg/kg/injection, schedule: Q01DX001 (ip), vehicle: carboxymethylcellulose (CMC) 96 % of control | dose: 400.0 mg/kg/injection, schedule: Q01DX001 (ip), vehicle: carboxymethylcellulose (CMC) 98 % of control

CCOCCOCCOC(C)Oc1ccc(Cl)cc1 (configuration not stated)
inactive: [1] 96 % of control | [2] 90 % of control | dose: 400.0 mg/kg/injection, schedule: Q04DX002 (ip), vehicle: saline 104 % of control

O=C1CCC(=O)N1CC(O)COc1ccc(Cl)cc1 (configuration not stated)
inactive: [3] 96 % of control | [4] 101 % of control | [5] 104 % of control

CCOC(=O)c1ccc(NCc2cnc3nc(N)nc(N)c3n2)cc1
inactive: dose: 3.0 mg/kg/injection, schedule: Q01DX009 (ip), vehicle: other 106 % of control | dose: 6.0 mg/kg/injection, schedule: Q01DX009 (ip), vehicle: other 102 % of control | dose: 12.0 mg/kg/injection, schedule: Q01DX009 (ip), vehicle: other 98 % of control | dose: 24.0 mg/kg/injection, schedule: Q01DX009 (ip), vehicle: other 98 % of control

Cc1ccc(C)c(NC(=O)NCc2ccco2)c1
inactive: [3] 97 % of control | [4] 89 % of control

Fc1c(F)c(F)c(Oc2c(F)c(F)[c]([Sn]([c]3c(F)c(F)c(Oc4c(F)c(F)c(F)c(F)c4F)c(F)c3F)([c]3c(F)c(F)c(Oc4c(F)c(F)c(F)c(F)c4F)c(F)c3F)[c]3c(F)c(F)c(Oc4c(F)c(F)c(F)c(F)c4F)c(F)c3F)c(F)c2F)c(F)c1F
inactive: [12] 104 % of control | [9] 103 % of control | [13] 105 % of control | [10] 102 % of control | [14] 104 % of control | [11] 102 % of control

CC1(C)N=C(N)N=C(N)N1c1cccc(OCCCOc2ccccc2)c1
inactive: dose: 200.0 mg/kg/injection, schedule: Q01DX001 (ip), vehicle: Klucel (hydroxypropylcellulose) (HPC) 102 % of control
